Assay [1] concerns the target Histone deacetylase (HDAC1 and HDAC2) (Homo sapiens, UniProt Q13547+Q92769). Put plainly: Inhibition of HDAC1/HDAC2 from human Hela nuclear extracts using [3H]acetylated histone peptide by colorimetry. In kind it is protein assay.
In assay [2] the test system is HCT-116. Kind of assay: Cell cycle arrest in human HCT116 cells assessed as accumulation at G1 phase at 1 umol/L by flow cytometry. In kind it is functional. On the technique in general: In flow cytometry, cells or beads pass a laser one at a time.
The test system of a further assay is A549. Put plainly: Antiproliferative activity against human A549 cells after 2 days by MTT assay. It counts as functional, cell-based. The conditions noted are these: A549, 48 h. For orientation: Tetrazolium assays rely on reduction of a dye to a coloured formazan, in cell work by metabolically active cells.
Assay [3] deals with HCT-116. Put plainly: Cell cycle arrest in human HCT116 cells assessed as accumulation at S phase at 1 umol/L by flow cytometry. It counts as functional.
In assay [4] the test system is HCT-116. Put plainly: Antiproliferative activity against human HCT116 cells after 2 days by MTT assay. Conditions: HCT-116, 48 h. In kind it is functional, cell-based.
Assay [5] has as its system HCT-116. Kind of assay: Cell cycle arrest in human HCT116 cells assessed as accumulation at G2 phase at 1 umol/L by flow cytometry. It counts as functional.

By IC50 is commonly meant the concentration needed to halve the response being measured. Read a high IC50 as a need for much substance. Molecule `COc1cc(CCC(=O)Nc2ccc(C(=O)NO)cc2)ccc1OCCC(C)C` yielded a half-inhibitory concentration (IC50) in assay [1] of 2900 nM. This lies in the single-digit micromolar range.

For `COc1cc(CCC(=O)Nc2ccc(C(=O)NO)cc2)ccc1OCc1cccc(Cl)c1`, the half-maximal inhibitory concentration (IC50) in assay [1] was determined as 1600 nM. This IC50 lies about 1.8-fold lower than the previous one.

Take `COc1cc(CCC(=O)Nc2ccc(C(=O)NO)cc2)ccc1OCc1ccccn1`: the IC50 in assay [1] was 3900 nM.

Take `COc1cc(CCC(=O)Nc2ccc(C(=O)NO)cc2)ccc1OCc1cccs1`: the Activity in the assay on HCT-116 [2] is reported as 28.51%; in the assay on HCT-116 [3], 24.33%; in the assay on HCT-116 [5] it was 47.16%. Besides, the concentration for half-maximal inhibition (IC50) was determined as 80 nM with A549, 30 nM in the assay on HCT-116 [4] and 300 nM in assay [1].

For the molecule `COc1cc(CCC(=O)Nc2ccc(C(=O)NO)cc2)ccc1OCc1ccc(Br)cc1`, the IC50 in assay [1] was 800 nM.

In assay [1], `COc1cc(CCC(=O)Nc2ccc(C(=O)NO)cc2)ccc1OCc1ccccc1Cl` displayed an IC50 of 1200 nM.

With `O=C(CCc1ccc2c(c1)OCO2)Nc1ccc(C(=O)NO)cc1`, the Activity worked out at 17.09% with HCT-116 [2], 34.11% in the assay on HCT-116 [3] and 48.8% in the assay with HCT-116 [5]. The figures for the half-maximal inhibitory concentration (IC50) (with A549; with HCT-116 [4]; in assay [1]) were 500 nM, 60 nM and 400 nM, respectively.

For `CCOc1ccc(CCC(=O)Nc2ccc(C(=O)NO)cc2)cc1OC`, the IC50 in assay [1] was 2900 nM.

Take `COc1ccc(CCC(=O)Nc2ccc(C(=O)NO)cc2)cc1OC`: the IC50 in assay [1] was found to be 3300 nM. This IC50 and that of the molecule before are within 1.5-fold of each other.

For the molecule `COc1cc(CCC(=O)Nc2ccc(C(=O)NO)cc2)ccc1OCc1ccc(C)cc1`, the IC50 in assay [1] stood at 1500 nM.

As for `COc1cc(CCC(=O)Nc2ccc(C(=O)NO)cc2)ccc1OCc1ccccc1Br`, the values for the 50% inhibitory concentration (IC50) (in the assay with A549; with HCT-116 [4]; in assay [1]) were 600 nM, 100 nM and 600 nM, respectively.

Molecule `COc1cc(CCC(=O)Nc2ccc(C(=O)NO)cc2)ccc1OCc1cccc(C)c1` gave an IC50 in assay [1] of 2600 nM.

Take `COc1cc(CCC(=O)Nc2ccc(C(=O)NO)cc2)ccc1OCc1ccccc1`: the IC50 was 600 nM in the assay with A549, 120 nM in the assay with HCT-116 [4] and 700 nM in assay [1].

Consider `COc1cc(CCC(=O)Nc2ccc(C(=O)NO)cc2)ccc1OCc1cccc(Br)c1`, for which the IC50 in assay [1] was 900 nM.

`CCCOc1ccc(CCC(=O)Nc2ccc(C(=O)NO)cc2)cc1OC` had a half-inhibitory concentration (IC50) in assay [1] of 1700 nM.

Molecule `CCC(C)Oc1ccc(CCC(=O)Nc2ccc(C(=O)NO)cc2)cc1OC` (centres undefined) registered a concentration for half-maximal inhibition (IC50) in assay [1] of 2200 nM. The IC50 values of the last two molecules are within 1.5-fold of each other.

In assay [1], `CCCCOc1ccc(CCC(=O)Nc2ccc(C(=O)NO)cc2)cc1OC` showed an IC50 of 1600 nM. The IC50 values of the last two molecules are within 1.5-fold of each other.

Consider `COc1cc(CCC(=O)Nc2ccc(C(=O)NO)cc2)ccc1OC1CCCC1`, for which the IC50 in assay [1] was found to be 4000 nM.

Turning to `COc1cc(CCC(=O)Nc2ccc(C(=O)NO)cc2)ccc1OCc1ccccc1C`, in assay [1], the IC50 was found to be 1800 nM.

Turning to `COc1cc(CCC(=O)Nc2ccc(C(=O)NO)cc2)ccc1OCc1ccc(Cl)cc1`, in assay [1], the concentration for half-maximal inhibition (IC50) came to 1400 nM.

(Values after ChEMBL document CHEMBL1155282, “Design, synthesis and preliminary biological evaluation of N-hydroxy-4-(3-phenylpropanamido)benzamide (HPPB) derivatives as novel histone deacetylase inhibitors” (Eur J Med Chem, 2009).)
